# Data reported in the supplement of paper PMC11208160.
# Test: recombinant barcode read abundance after kanamycin selection (control-corrected) (log10(CPM+1)); higher = more efficient recombination; sequences stand for … in AGTGCAGAGAAAATCGGCCAGTTTTCTCTGCCTGCAGTCCGCATGCCGT…AGATTTATGCAGCGGACTGCCTTTCTCCCAAAGTGATAAACCGGACAGTATCATGGACCGGTTTTCCCGGTAATCCGTATTTGCAAGGTTGGTTTCACT; site = the 11-nt target
# Method in brief: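 Values are log10(CPM+1) from a pooled E. coli screen of targets paired with IS621 bridge RNA target-binding loops. Recombination efficiency here means counts per million of recombinant-junction barcodes, averaged and control-corrected. Plates were chloramphenicol/ampicillin LB agar for the control and chloramphenicol/ampicillin/kanamycin with 0.1 mM IPTG, two replicates each.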
# 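Note: IS621 recombinase and bridge RNA in Escherichia coli cells.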
sequence,measurement,value
TATTGGACTTGGGTTCTAACCTGTTGCAG (site TATTGGACTTT),recombinant barcode read abundance (log10),0.14
TATTTAGCTTGGGTTCTAACCTGTTGCGG (site ACCAACACTAA),recombinant barcode read abundance (log10),0.0937
TATTTAGCTTGGGTTCTAACCTGTTGCGG (site TATTTAGCTCC),recombinant barcode read abundance (log10),0.835
TATTTGCCTTGGGTTCTAACCTGTTGCCT (site TAATTGCCTAG),recombinant barcode read abundance (log10),0.0398
TATTTGCCTTGGGTTCTAACCTGTTGCCT (site TACTTGCCTAG),recombinant barcode read abundance (log10),0
TATTTGCCTTGGGTTCTAACCTGTTGCCT (site TAGTTGCCTAG),recombinant barcode read abundance (log10),0.408
TATTTGCCTTGGGTTCTAACCTGTTGCCT (site TATTTGCCTAG),recombinant barcode read abundance (log10),0
TCAATAGCTTGGGTTCTAACCTGTTGCAC (site AAGCCGCCTAA),recombinant barcode read abundance (log10),0.204
TCAATAGCTTGGGTTCTAACCTGTTGCAC (site TCAATAGCTGT),recombinant barcode read abundance (log10),1.28
TCACACTCTTGGGTTCTAACCTGTTGCCT (site TCACACTCTAG),recombinant barcode read abundance (log10),1.59
TCACACTCTTGGGTTCTAACCTGTTGCCT (site TCCCACTCTAG),recombinant barcode read abundance (log10),0.111
TCACACTCTTGGGTTCTAACCTGTTGCCT (site TCGCACTCTAG),recombinant barcode read abundance (log10),0.101
TCACACTCTTGGGTTCTAACCTGTTGCCT (site TCTCACTCTAG),recombinant barcode read abundance (log10),0.114
TCACCACCTTGGGTTCTAACCTGTTGCCT (site GAACCACCTAG),recombinant barcode read abundance (log10),0.028
TCACCACCTTGGGTTCTAACCTGTTGCCT (site TCACCACCTAG),recombinant barcode read abundance (log10),0.744
TCACCTTCTTGGGTTCTAACCTGTTGCCT (site TCACCTTCTAG),recombinant barcode read abundance (log10),0.274
TCACCTTCTTGGGTTCTAACCTGTTGCCT (site TCACTTCCTAG),recombinant barcode read abundance (log10),0.0695
TCACGTCCTTGGGTTCTAACCTGTTGCAG (site TCACGTCCTCT),recombinant barcode read abundance (log10),0.829
TCACGTCCTTGGGTTCTAACCTGTTGCAG (site TCGCGTCCTCT),recombinant barcode read abundance (log10),0.183
TCAGCATCTTGGGTTCTAACCTGTTGCCT (site TCAGAATCTAG),recombinant barcode read abundance (log10),0.0342
TCAGCATCTTGGGTTCTAACCTGTTGCCT (site TCAGCATCTAG),recombinant barcode read abundance (log10),0.457
TCAGCATCTTGGGTTCTAACCTGTTGCCT (site TCAGGATCTAG),recombinant barcode read abundance (log10),0.0504
TCAGCATCTTGGGTTCTAACCTGTTGCCT (site TCAGTATCTAG),recombinant barcode read abundance (log10),0.0947
TCAGGATCTTGGGTTCTAACCTGTTGCCT (site TCAGAATCTAG),recombinant barcode read abundance (log10),0.201
TCAGGATCTTGGGTTCTAACCTGTTGCCT (site TCAGCATCTAG),recombinant barcode read abundance (log10),0.0751
TCAGGATCTTGGGTTCTAACCTGTTGCCT (site TCAGGATCTAG),recombinant barcode read abundance (log10),0.679
TCAGGATCTTGGGTTCTAACCTGTTGCCT (site TCAGTATCTAG),recombinant barcode read abundance (log10),0.291
TCATATACTTGGGTTCTAACCTGTTGCCT (site ACATTTACTAG),recombinant barcode read abundance (log10),0.238
TCATATACTTGGGTTCTAACCTGTTGCCT (site TCATATACTAG),recombinant barcode read abundance (log10),0.553
TCATATCCTTGGGTTCTAACCTGTTGCCT (site CTCCGAACTCT),recombinant barcode read abundance (log10),0.00468
TCATATCCTTGGGTTCTAACCTGTTGCCT (site TCATATCCTAG),recombinant barcode read abundance (log10),0.167
TCATCCGCTTGGGTTCTAACCTGTTGCCT (site CCATCCACTAG),recombinant barcode read abundance (log10),0.12
TCATCCGCTTGGGTTCTAACCTGTTGCCT (site TCATCCGCTAG),recombinant barcode read abundance (log10),1.05
TCCAAACCTTGGGTTCTAACCTGTTGCAG (site TCCAAACCTCT),recombinant barcode read abundance (log10),0.898
TCCAAACCTTGGGTTCTAACCTGTTGCAG (site TCCAACCCTCT),recombinant barcode read abundance (log10),0.0235
TCCAAACCTTGGGTTCTAACCTGTTGCAG (site TCCAAGCCTCT),recombinant barcode read abundance (log10),0.151
